Our source for the viability values is paper PMC12040169 (PLOS Biology, 2025).

This series in a line: in vitro. Conditions: human, hela cells, % viability.

SMILES strings stand for the structures.

For the compound `CCCCNCCn1cnc2c(N)ncnc21` [CBK057447], the viability at 28.5 h, 10 µM amounted to 116%. `CCCC(=O)N1CCC(c2cc(C(F)F)c3c(C)noc3n2)CC1` [CBK285304]: the viability at 28.5 h, 10 µM stood at 102%. On the same count and under the same terms, to `CCN1CCN(C(=O)CN(CC)S(=O)(=O)c2ccc3ccccc3c2)CC1` [CBK267913] belongs 101%.

In the case of `CC1(C)Cc2nc(-c3ccccc3)nc(SCC(=O)NCCc3ccccc3)c2CO1` [CBK267205], the viability at 28.5 h, 10 µM stood at 86.7%.

On to `Cc1ccc2nc(N3CCCC(O)C3)c(CN3CCN(C)CC3)cc2c1` (stereo not shown) [CBK307710], for which the viability at 28.5 h, 10 µM came out at 100%.

Turning to `O=C(C1CCC1)N1CCC(n2nc(C3CC3)ccc2=O)CC1` [CBK284239], the viability at 28.5 h, 10 µM was 104%. The same measure, in the same setting: with `O=C(NCCCN1CCOCC1)NC(=O)c1ccc(Cl)cc1` [CBK269531] the figure was 96.4%; with `N#Cc1c(NC(=O)CN2CCCCC2)sc2c1CCCC2` [CBK261619], 89.6%; with `O=C(Cc1ccc(F)cc1)N1CCC(c2cccc(Cc3ccccc3F)n2)CC1` [CBK286213], 117%. The same measure, in the same setting: to `COc1ccc(NC(=O)CCn2ccc3ccncc32)c(C)c1` [CBK282860] belongs 109%. As to `CCOC(=O)N1CCC2(CC1)Oc1ccc(-c3cccc4ncccc34)cc1O2` [CBK085454], where the note is “bulk resorufin, single well”, the viability at 28.5 h, 10 µM is 99.8%.

As to `CCCC(=O)c1ccc(S(=O)(=O)N2CCN(Cc3ccc(F)c(C(F)(F)F)c3)CC2)cc1` [CBK063162], the viability at 28.5 h, 10 µM is 101%.

Consider `Cc1ccccc1OCc1nnc(SCC(N)=O)n1-c1ccccc1` [CBK268808], for which the viability at 28.5 h, 10 µM worked out at 101%. On to `CC(C)N1CNc2c(c(=O)nc(O)n2Cc2ccccc2)C1` [CBK291139], for which the viability at 28.5 h, 10 µM came to 92.5%.

As to `CC1=NN(c2ccc([N+](=O)[O-])cc2)C(=O)/C1=C/NCc1ccc(S(N)(=O)=O)cc1` [CBK262670], the viability at 28.5 h, 10 µM worked out at 111%. The same measure, in the same setting: with `S=C(NCCn1cc(Br)cn1)NCc1ccco1` [CBK266914] the figure was 95.5%; with `CN(C)S(=O)(=O)N1CCC(Cc2ccccc2)CC1` [CBK263768], 98.2%; with `CCCCNC(=O)NS(N)(=O)=O` [CBK022990], 109%.

With `CC(C)(C)c1ccc(C(=O)N2CCC3(CC2)CC(=O)N(Cc2ccc(S(C)(=O)=O)cc2)C3=O)cc1` [CBK155018], the viability at 28.5 h, 10 µM was 106%. On the same count and under the same terms, with `COc1ccccc1C1(NC(=O)c2c(C)noc2C)CCCC1` [CBK283644] the figure was 95%; with `CN(C)CCNc1nccc2sc(S(=O)(=O)NCCC3=CCCCC3)cc12` [CBK038244C], 108%. Same read-out and setting: with `S=C1NC2(CCCCC2)NC12CCCCC2` [CBK006533] the figure was 98.5%; with `O=C(c1ccsc1NS(=O)(=O)c1cc(Cl)sc1Cl)N1CCOCC1` [CBK042288], 92.5%. Same read-out and setting: with `O=C(Cn1ccc2ccnc(-c3cccs3)c21)NCc1ccccn1` [CBK284735] the figure was 95.9%; with `Cc1ccccc1-n1ccn(S(=O)(=O)c2ccccc2)c1=O` [CBK106567], 86.7%; with `COC(=O)Cc1ccc(NC(=S)N2CCC(C(N)=O)(N3CCCCC3)CC2)cc1` [CBK266101], 97.6%. For `CCN1CCN(C(=O)CCNC(=O)c2cccc(OC)c2)CC1` [CBK307580], the viability at 28.5 h, 10 µM came to 96.6%. For `O=C(Cn1c(=O)oc2cc(Cl)ccc21)N1CCC2(CC1)OCCO2` [CBK304652], the viability at 28.5 h, 10 µM (bulk resorufin, single well) was 97%. As to `CCOC(=O)N1CCC(NC(=O)N2CCN(c3cc(C(F)(F)F)ccn3)CC2)CC1` [CBK162353], the viability at 28.5 h, 10 µM came to 103%. `O=C(CN1C(=O)c2ccc(Br)cc2C1=O)OCc1ccc(S(=O)(=O)N2CCOCC2)cc1` [CBK267505]: the viability at 28.5 h, 10 µM is 84.6%. `CCN1CCN(c2cc(C)nc3c(-c4ccccc4)cnn23)CC1` [CBK287793]: the viability at 28.5 h, 10 µM was 88.4%. With `NC(=O)CN1CCCN(c2ccnc(OCC3COc4ccccc4O3)n2)CC1` (stereo not shown) [CBK083236T], the viability at 28.5 h, 10 µM turned out to be 91.4%. Same read-out and setting: to `Cc1nccn1CCC(=O)Nc1ccccc1Oc1ccc(F)cc1` [CBK281473] belongs 91.9%; to `CC(=O)Nc1ccccc1/C=C/c1ccc2c(C)cc(C)c(O)c2n1` [CBK261937], 106%. On the same count and under the same terms, to `CNCCCC1(c2ccccc2)SC(C)(C)c2ccccc21` (stereo not shown) [CBK015933C] belongs 90.6%. For `CN1CCC(=NNC(=O)CSCc2ccccc2Br)CC1` [CBK026542], the viability at 28.5 h, 10 µM stood at 104%.

Turning to `COc1cc(/C=C2\SC(=N)NC2=O)cc(Cl)c1OS(=O)(=O)c1ccc(NC(C)=O)cc1` [CBK264502], the viability at 28.5 h, 10 µM came out at 107%.

As to `Cc1ncccc1C(=O)N1CCC(c2cc3ccccc3cn2)CC1` [CBK284854], the viability at 28.5 h, 10 µM turned out to be 113%.

On to `O=C(O)/C=C\C(=O)Nc1ccccc1C(=O)N1CCOCC1` [CBK287067], for which the viability at 28.5 h, 10 µM is 100%.

In the case of `CCN(Cc1ccccc1)c1ccc(C2NC(=O)NC(O)(C(F)(F)F)C2C(=O)c2cccnc2)cc1` (stereo not shown) [CBK264999], the viability at 28.5 h, 10 µM was found to be 91.7%.

As to `COc1ccc(CN(Cc2ccsc2)[C@@H]2COC[C@H]2c2ccc(F)cc2)cc1` [CBK286485], the viability at 28.5 h, 10 µM was found to be 112%.

As to `CCC(CN1CCCC1)NC(=O)C1(c2ccccc2)CCOCC1` (stereo not shown) [CBK282758], the viability at 28.5 h, 10 µM came to 96.6%. Still for that read-out and setting: to `O=C(O)c1cc(-c2ccc3c(c2)OCCO3)nc2ccccc12` [CBK262422] belongs 92.5%; to `CCN(CC)C(=O)c1cccc(OC)c1` [CBK012105], 101%; to `O=C(CC1CCN(C(=O)Cc2ccccc2)CC1)Nc1nc2c(s1)CCCCC2` [CBK286001], 90.3%. In the case of `O=C(CC1SCCNC1=O)NCc1ccccc1` (stereo not shown) [CBK270202], the viability at 28.5 h, 10 µM amounted to 99.1%. Same read-out and setting: with `O=C(CCn1cccn1)NCC1CCCOC1` (stereo not shown) [CBK281474] the figure was 110%; with `Cc1ccc2c(c1)nc(CNC(=O)NCCCO)n2C` [CBK306174], 86.1%. On the same count and under the same terms, with `Cc1ccc(-c2ccc(/C=C(\C#N)c3nc(-c4ccco4)cs3)o2)c([N+](=O)[O-])c1` [CBK266685] the figure was 96%. Consider `CC(C)(C)OC(=O)NCCNC(=O)Nc1ccccc1C(F)(F)F` [CBK056940], for which the viability at 28.5 h, 10 µM is 98.6%.

As for `NC(=O)OC(c1ccccc1[N+](=O)[O-])P(=O)(c1ccccc1)c1ccccc1` (stereo not shown) [CBK261383], the viability at 28.5 h, 10 µM came to 88.3%. Same read-out and setting: to `Cn1c(=O)c2[nH]c(N3CCCCC3)nc2n(C)c1=O` [CBK027630] belongs 86.1%; to `Cc1nc(C)n(CC2CCCN(c3ncnc4ccsc34)C2)n1` (stereo not shown) [CBK304037], 71.8%. Still for that read-out and setting: with `Cc1cc(C)c(OCCNC(C)(C)C)c(Cl)c1` [CBK262713C] the figure was 93.2%; with `CN(C)C(=O)Cn1nc(-c2cccc(-n3cccc3)c2)oc1=O` [CBK283759], 103%. On the same count and under the same terms, with `Cc1ccc(-c2cc(CC3(C(=O)NC4CC4)CCOCC3)on2)cc1` [CBK284946] the figure was 99.7%; with `COc1cnc(/C=C\c2ccccc2)c(NC(=O)c2cc(C)oc2C)n1` [CBK145222], 95.1%. Take `O=C(Cc1ccc(F)cc1)N1CCn2c(nnc2C2CC2)C1` [CBK283688]: the viability at 28.5 h, 10 µM turned out to be 113%.

`COc1ccc(NC(=O)CSc2nc(N)n[nH]2)cc1Cl` [CBK268065]: the viability at 28.5 h, 10 µM came out at 108%. Same read-out and setting: to `O=C(CSc1nnc2ccc3ccccc3n12)Nc1nsc(-c2ccc(Cl)cc2)n1` [CBK266460] belongs 99.5%. As for `CS(=O)(=O)c1cccc(-c2ccc3c(c2)COC2(CCNCC2)O3)c1` [CBK060990], the viability at 28.5 h, 10 µM (bulk resorufin, single well) stood at 94.4%.

Regarding `CCOc1ccc(S(=O)(=O)N2CCC(C(=O)N3CCN(C)CC3)CC2)cc1` [CBK270075], the viability at 28.5 h, 10 µM worked out at 88.8%. Still for that read-out and setting: with `S=C(Nc1ccccc1Cl)Nc1ccccc1-n1cccc1` [CBK018806] the figure was 81.6%; with `c1ccc(N2CCN(C3c4ccccc4Sc4ccccc43)CC2)cc1` [CBK066894], 92.1%.

Regarding `Cc1cc2nc(-c3cc(NC(=O)c4ccc(C)c([N+](=O)[O-])c4)ccc3O)oc2cc1C` [CBK262779], the viability at 28.5 h, 10 µM was 89.1%. On the same count and under the same terms, with `CN(Cc1cnn(C)c1)c1nccc(N2CCN[C@H]3CS(=O)(=O)C[C@H]32)n1` [CBK306964] the figure was 100%; with `O=C(NCc1ccccn1)c1ncoc1-c1ccc(F)cc1` [CBK282352], 79.6%. Same read-out and setting: to `CS(=O)(=O)Nc1ccc(C(=O)Nc2ccc(S(=O)(=O)N3CCOCC3)cc2)cc1` [CBK268379] belongs 117%; to `O=C(NC1CCOCC1)c1n[nH]c2c1CCC2` [CBK174626], 113%; to `Cc1oc(C)c(C(=O)Nc2cccc(C(=O)O)c2)c1C(=O)Nc1cccc(C(=O)O)c1` [CBK266472], 108%. The same measure, in the same setting: to `CNC(=O)c1oc(-c2ccc(OC)cc2)c(-c2ccc(OC)cc2)c1C(=O)NC` [CBK001956] belongs 90.9%. Consider `CCCCN1CC(=O)C(c2nc3ccccc3[nH]2)=C1N` [CBK287777], for which the viability at 28.5 h, 10 µM stood at 93.7%. Still for that read-out and setting: to `O=C(CSc1ncn(-c2ccccc2)n1)c1ccc(Br)cc1` [CBK027014] belongs 91.6%. Take `Nc1cc(NC(=O)c2cccc(C(=O)Nc3ccc(Cl)c(N)c3)c2)ccc1Cl` [CBK261379]: the viability at 28.5 h, 10 µM worked out at 94.1%. Same read-out and setting: with `CCOc1cccc(NC(=O)/C(C#N)=C\c2cc(C)n(-c3cccc(C(=O)O)c3)c2C)c1` [CBK263186] the figure was 115%; with `COc1ccc(C(=O)N2CC[C@H]3NC(=O)N(Cc4ccccc4)C(=O)[C@H]32)cc1` [CBK289293], 94.1%; with `Cc1ccc(-c2nnc(COc3ccc(-c4cnc5ccccc5n4)cc3)o2)cc1` [CBK269721], 90.9%. On the same count and under the same terms, with `Cc1nccn1CCC(=O)NC(c1ccncc1)c1cccs1` (stereo not shown) [CBK281440] the figure was 90.6%; with `CC(=O)CCC(=O)N1CCN(C(=O)c2ccc(-c3ccc(S(C)(=O)=O)cc3)cn2)CC1` [CBK160484], 105%.

Usually viability stands for a read-out of living cells in per cent, often relative to untreated cells.
